Test system: bleeding ulcers in a live porcine model
Experiment: In vivo bleeding control by injectable gel, porcine bleeding model
Parameters: species or system Yorkshire pigs
Details: 5 mL injected adjacent to bleeding ulcer
Description: To test the efficacy of epinephrine gels for bleeding control, a porcine bleeding model was created.
After ulcer creation, gel formulations or saline (negative control), epinephrine 1:10,000 (positive control) of 5 mL each were injected adjacent to the bleeding ulcer.

CNC[C@H](O)c1ccc(O)c(O)c1 [Epinephrine 1:10,000, Epinephrine]
No: Time at 5 min, bleeding present | Time at 10 min, bleeding present | Time at 15 min, bleeding present
